Literature values, collected in article PMC7395048 (Archives of Toxicology, 2020).
Read-outs that look alike come from different tables or passages of the source.

Assays:
[1] = steady-state blood (plasma x BPr), cited from earlier work
[2] = test system: QTc interval in the human ECG; details: cited from earlier work
[3] = oral 57.5 mg/day, 64.7 kg, ref De Vos et al. ([1995])
[4] = oral 70 mg/day, 74 kg, sum of enantiomers, ref Foster et al. ([2000])
[5] = oral 100 mg/day, 90 kg, sum of enantiomers, ref Liu et al. ([2007])
[6] = case serials, person, 330 mg/day, baseline 411 ms assumed, ref Krantz et al. (2002)
[7] = cross-sectional, MMT and pain, 110 mg/day, 12.5 months, baseline 407 ms, ref Cruciani et al. (2005)
[8] = cross-sectional, MMT, 80 ± 27.5 mg/day, > 3 months, baseline 407 ms, ref Roy et al. (2012)
[9] = cross-sectional, MMT, 87 ± 76 mg/day, > 6 months, baseline 407 ms, ref Maremmani et al. (2005)
[10] = cross-sectional, MMT, 145 ± 83 mg/day, 61 ± 61 months, baseline 407 ms, ref Eap et al. (2007)
[11] = cross-sectional, MMT, 162.7 ± 28.7 mg/day, > 100 days, baseline 407 ms, ref Peles et al. (2007)
[12] = individual from prospective study, person one, 30 mg/day, baseline 420 ms, ref Fredheim et al. (2006)
[13] = individual from prospective study, person two, 30 mg/day, baseline 420 ms, ref Fredheim et al. (2006)
[14] = longitudinal, MMT, 45 ± 24 mg/day, 6 months, baseline 422 ± 24 ms, ref Chang et al. (2012)
[15] = prospective, MMT, 80 mg/day, 6 months, baseline 418.1 ±22 ms, ref Martell et al. (2005)
[16] = prospective, MMT, 64.6 ± 30.5 mg/day, 21 days, baseline 389.3 ms, ref Carlquist et al. (2015)
[17] = prospective, MMT, 80 ± 32 mg/day, 6 months, baseline 415.3 ms, ref Krantz et al. (2005)
[18] = prospective, cancer pain, 23 mg/day, 2 weeks, baseline 427 ms, ref Reddy et al. (2010)
[19] = retrospective, MMT, 87.9 mg/day, baseline 407 ms, ref Chowdhury et al. (2015)
[20] = retrospective, MMT, 100 mg/day, baseline 430 ms, ref Ehret et al. (2006)
[21] = retrospective, MMT, 74.5 ± 26.5 mg/day, 1.2 ± 1.6 years, baseline 429 ± 35 ms, ref Bart et al. (2017)
[22] = retrospective, MMT, 98 ± 55 mg/day, 74 ± 31 months, baseline 420 ± 33 ms, ref Fareed et al. (2013)
[23] = retrospective, veteran, 11 mg/day, 161 days, baseline 428 ms, ref Heesch et al. (2015)
[24] = retrospective, veteran, 24 mg/day, 161 days, baseline 436 ms, ref Heesch et al. (2015)
[25] = retrospective, veteran, 75 mg/day, 161 days, baseline 437 ms, ref Heesch et al. (2015)

In the case of CCC(=O)C(CC(C)N(C)C)(c1ccccc1)c1ccccc1 (stereo not shown) [methadone], the “In vivo AUC” value [1, 3] is listed as 5978 ng·h/mL, the “In vivo Cmax” value [1, 3] is listed as 383.6 ng/mL and the “In vivo Cmax” value ([1]; oral 61 mg/day, body weight set to 70 kg, ref Diong et al. ([2014])) is listed as 216.0 ng/mL. The “In vivo AUC” value [1, 4] was 5097 ng·h/mL, the “In vivo Cmax” value [1, 4] was 346.2 ng/mL and the “In vivo AUC” value [1, 5] was 7889 ng·h/mL. The “In vivo Cmax” value [1, 5] was 453.6 ng/mL, the “Post QTc” value ([2]; case report, 100 mg/day, baseline 405 ms assumed, ref Esses et al. (2008)) was 580 ms and the “Post QTc” value ([2]; case serials, person, 97 mg/day, baseline 405 ms assumed, ref Krantz et al. (2002)) was 560 ms. The “Post QTc” value ([2]; case serials, person, 270 mg/day, baseline 411 ms assumed, ref Krantz et al. (2002)) was 600 ms, the “Post QTc” value [2, 6] was 522 ms and the “QTc (% to baseline)” value [2, 6] was 127.0%. The “Post QTc” value ([2]; case serials, person, 550 mg/day, baseline 405 ms assumed, ref Krantz et al. (2002)) was 625 ms, the “Post QTc” value ([2]; case serials, person, 600 mg/day, baseline 405 ms assumed, ref Krantz et al. (2002)) was 635 ms and the Post-QTc [2, 7] was 428 ms. For the same molecule, the QTc % [2, 7] was 105.2%, the Post-QTc [2, 8] was 421 ms and the QTc % [2, 8] was 103.4%. The Post-QTc [2, 9] was 423 ms, the QTc % [2, 9] was 103.9% and the Post-QTc [2, 10] was 423 ± 23 ms. For the same molecule, the QTc % [2, 10] was 103.9%, the Post-QTc [2, 11] was 447.6 ± 31.7 ms and the QTc % [2, 11] was 110.0%. The “Post QTc” value [2, 12] was 410 ms, the “QTc (% to baseline)” value [2, 12] was 97.6% and the “Post QTc” value [2, 13] was 490 ms. The “QTc (% to baseline)” value [2, 13] was 116.7%, the Post-QTc [2, 14] was 430 ± 23 ms and the QTc % [2, 14] was 101.9%. The Post-QTc [2, 15] was 430.8 ± 24 ms, the QTc % [2, 15] was 103.04% and the Post-QTc [2, 16] was 411.1 ms. The QTc % [2, 16] was 105.6%, the Post-QTc [2, 17] was 429.4 ms and the QTc % [2, 17] was 103.40%. For the same molecule, the Post-QTc [2, 18] was 430 ms, the QTc % [2, 18] was 100.7% and the Post-QTc [2, 19] was 453 ms. The QTc % [2, 19] was 111.3%, the Post-QTc [2, 20] was 440 ms and the QTc % [2, 20] was 102.33%. For the same molecule, the Post-QTc [2, 21] was 440 ± 35 ms, the QTc % [2, 21] was 102.6% and the Post-QTc [2, 22] was 459 ± 29 ms. For the same molecule, the QTc % [2, 22] was 109.3%, the Post-QTc [2, 23] was 430 ms and the QTc % [2, 23] was 100.5%. The Post-QTc [2, 24] was 439 ms, the QTc % [2, 24] was 100.7% and the Post-QTc [2, 25] was 446 ms. For the same molecule, the QTc % [2, 25] was 102.1%.
